Data from PubChem BioAssay AID1259407 (Chemical Carcinogenesis Research Information System (CCRIS), 2018).
The source made the active and inactive calls. The rule behind the calls is not given here.

Test system: CCRIS mutagenicity, Ames/micronucleus/aberration tests
Assay: CCRIS mutagenicity studies
[1] = Test System: AMES SALMONELLA TYPHIMURIUM, Strain/Indicator: TA100, Metabolic Activation: NONE, Method: PREINCUBATION
[2] = Test System: AMES SALMONELLA TYPHIMURIUM, Strain/Indicator: TA104, Metabolic Activation: NONE, Method: PREINCUBATION
[3] = Test System: AMES SALMONELLA TYPHIMURIUM, Strain/Indicator: TA98, Metabolic Activation: NONE, Method: PREINCUBATION
[4] = Test System: AMES SALMONELLA TYPHIMURIUM, Strain/Indicator: TA98, Metabolic Activation: RAT, LIVER, S-9, PCB, Method: PREINCUBATION
[5] = Test System: AMES SALMONELLA TYPHIMURIUM, Strain/Indicator: TA100, Metabolic Activation: RAT, LIVER, S-9, PCB, Method: PREINCUBATION
[6] = Test System: AMES SALMONELLA TYPHIMURIUM, Strain/Indicator: TA100, Metabolic Activation: NONE, Method: STANDARD PLATE
[7] = Test System: E.COLI, Strain/Indicator: WP2 UVRA, Metabolic Activation: NONE, Method: PREINCUBATION

SMILES: C=C(C)C=O
- mutagenic call (Test System: AMES SALMONELLA TYPHIMURIUM, Strain/Indicator: TA100, Metabolic Activation: NONE, Method: MODIFIED LIQUID SUSPENSION): active; positive
- mutagenic call [1]: active; positive
- mutagenic call (Test System: AMES SALMONELLA TYPHIMURIUM, Strain/Indicator: TA100, Metabolic Activation: RAT LIVER S-9, AROCLOR 1254, Method: PREINCUBATION): active; positive
- mutagenic call (Test System: AMES SALMONELLA TYPHIMURIUM, Strain/Indicator: TA100, Metabolic Activation: RAT, LIVER, S-9, AROCLOR 1254, Method: MODIFIED LIQUID SUSPENSION): active; positive
- mutagenic call (Test System: AMES SALMONELLA TYPHIMURIUM, Strain/Indicator: TA100, Metabolic Activation: RAT, LIVER, S-9, AROCLOR 1254, Method: PREINCUBATION): active; positive
- mutagenic call [2]: active; positive
- mutagenic call (Test System: CHINESE HAMSTER V-79, Strain/Indicator: V-79 (HPRT)/6-THIOGUANINE, Metabolic Activation: NONE): active; positive
- mutagenic call (Test System: CHINESE HAMSTER V-79, Strain/Indicator: V-79 (HPRT)/6-THIOGUANINE, Metabolic Activation: RAT LIVER S-9, AROCLOR 1254): inactive; negative

SMILES: CC(=O)[O-].CC(=O)[O-].CC(=O)[O-].[Cr+3]
- mutagenic call (End Point: IN VITRO MICRONUCLEUS, Test System: CHL/IU CELLS, Metabolic Activation: NONE): active; positive
- mutagenic call (Test System: UDS RAT HEPATOCYTES, Strain/Indicator: THY INCORP, Metabolic Activation: NONE, Method: AUTORADIOGRAPHY): inactive; negative

SMILES: CCCCCNC(=O)/C=C/c1ccc([N+](=O)[O-])o1
- mutagenic call [3]: active; positive

SMILES: COCc1c(O)cc2c(c1O)C(=O)c1ccccc1C2=O
- mutagenic call [3]: active; positive
- mutagenic call [4]: active; positive
- mutagenic call [1]: active; positive
- mutagenic call [5]: active; positive

SMILES: Cc1c(C)c2c3c(ccc2c2ccccc12)[C@@H](O)[C@H](O)[C@@H]1O[C@H]31
- mutagenic call [6]: active; positive

SMILES: CC(C)Oc1ccc2c(=O)c(-c3ccccc3)coc2c1
- mutagenic call (Test System: AMES SALMONELLA TYPHIMURIUM, Strain/Indicator: TA98, Metabolic Activation: NONE, Method: STANDARD PLATE): inactive; negative
- mutagenic call (Test System: AMES SALMONELLA TYPHIMURIUM, Strain/Indicator: TA98, Metabolic Activation: S-9, Method: STANDARD PLATE): inactive; negative
- mutagenic call [6]: inactive; negative
- mutagenic call (Test System: AMES SALMONELLA TYPHIMURIUM, Strain/Indicator: TA100, Metabolic Activation: S-9, Method: STANDARD PLATE): inactive; negative
- mutagenic call (Test System: AMES SALMONELLA TYPHIMURIUM, Strain/Indicator: TA1535, Metabolic Activation: NONE, Method: STANDARD PLATE): inactive; negative
- mutagenic call (Test System: AMES SALMONELLA TYPHIMURIUM, Strain/Indicator: TA1535, Metabolic Activation: S-9, Method: STANDARD PLATE): inactive; negative
- mutagenic call (Test System: AMES SALMONELLA TYPHIMURIUM, Strain/Indicator: TA1537, Metabolic Activation: NONE, Method: STANDARD PLATE): inactive; negative
- mutagenic call (Test System: AMES SALMONELLA TYPHIMURIUM, Strain/Indicator: TA1537, Metabolic Activation: S-9, Method: STANDARD PLATE): inactive; negative
- mutagenic call (Test System: AMES SALMONELLA TYPHIMURIUM, Strain/Indicator: TA1538, Metabolic Activation: NONE, Method: STANDARD PLATE): inactive; negative
- mutagenic call (Test System: AMES SALMONELLA TYPHIMURIUM, Strain/Indicator: TA1538, Metabolic Activation: S-9, Method: STANDARD PLATE): inactive; negative
- mutagenic call (Test System: E. COLI, Strain/Indicator: WP2 UVRA, Metabolic Activation: NONE, Method: STANDARD PLATE): inactive; negative
- mutagenic call (Test System: E. COLI, Strain/Indicator: WP2 UVRA, Metabolic Activation: S-9, Method: STANDARD PLATE): inactive; negative

SMILES: CC1CC(C)C(=O)C1=O (stereo unspecified)
- mutagenic call [3]: inactive; negative
- mutagenic call (Test System: AMES SALMONELLA TYPHIMURIUM, Strain/Indicator: TA98, Metabolic Activation: S-9, Method: PREINCUBATION): inactive; negative
- mutagenic call [1]: inactive; negative
- mutagenic call (Test System: AMES SALMONELLA TYPHIMURIUM, Strain/Indicator: TA100, Metabolic Activation: S-9, Method: PREINCUBATION): inactive; negative
- mutagenic call (Test System: AMES SALMONELLA TYPHIMURIUM, Strain/Indicator: TA1535, Metabolic Activation: NONE, Method: PREINCUBATION): inactive; negative
- mutagenic call (Test System: AMES SALMONELLA TYPHIMURIUM, Strain/Indicator: TA1535, Metabolic Activation: S-9, Method: PREINCUBATION): inactive; negative
- mutagenic call (Test System: AMES SALMONELLA TYPHIMURIUM, Strain/Indicator: TA1537, Metabolic Activation: NONE, Method: PREINCUBATION): inactive; negative
- mutagenic call (Test System: AMES SALMONELLA TYPHIMURIUM, Strain/Indicator: TA1537, Metabolic Activation: S-9, Method: PREINCUBATION): inactive; negative
- mutagenic call [7]: inactive; negative
- mutagenic call (Test System: E.COLI, Strain/Indicator: WP2 UVRA, Metabolic Activation: S-9, Method: PREINCUBATION): inactive; negative

SMILES: Cc1cc2c(nc(N)n2C)c2nc(-c3ccccc3)cnc12
- mutagenic call (Test System: AMES SALMONELLA TYPHIMURIUM, Strain/Indicator: TA98, Metabolic Activation: RAT, LIVER, S-9, AROCLOR 1254, Method: STANDARD PLATE): active; positive

SMILES: O=C(O)Cc1ccccc1Cl
- mutagenic call [3]: inactive; negative
- mutagenic call (Test System: AMES SALMONELLA TYPHIMURIUM, Strain/Indicator: TA98, Metabolic Activation: RAT LIVER S-9, PCB, Method: PREINCUBATION): inactive; negative
- mutagenic call [1]: inactive; negative
- mutagenic call (Test System: AMES SALMONELLA TYPHIMURIUM, Strain/Indicator: TA100, Metabolic Activation: RAT LIVER S-9, PCB, Method: PREINCUBATION): inactive; negative
- mutagenic call [2]: inactive; negative
- mutagenic call (Test System: AMES SALMONELLA TYPHIMURIUM, Strain/Indicator: TA104, Metabolic Activation: RAT LIVER S-9, PCB, Method: PREINCUBATION): inactive; negative
- mutagenic call [7]: inactive; negative
- mutagenic call (Test System: E.COLI, Strain/Indicator: WP2 UVRA, Metabolic Activation: RAT LIVER S-9, PCB, Method: PREINCUBATION): inactive; negative

SMILES: Nc1ccc(Oc2cccc(Oc3ccc(N)cc3)c2)cc1
- mutagenic call [3]: inactive; negative
- mutagenic call [4]: active; positive
- mutagenic call [1]: inactive; negative
- mutagenic call [5]: active; positive
